pIC50: −log10 of the molar value. Converted amounts (≈) assume the structure as drawn. A value given as a limit tells only on which side of the number the result lay.

T1 sequence (O75874 whole entry R132H): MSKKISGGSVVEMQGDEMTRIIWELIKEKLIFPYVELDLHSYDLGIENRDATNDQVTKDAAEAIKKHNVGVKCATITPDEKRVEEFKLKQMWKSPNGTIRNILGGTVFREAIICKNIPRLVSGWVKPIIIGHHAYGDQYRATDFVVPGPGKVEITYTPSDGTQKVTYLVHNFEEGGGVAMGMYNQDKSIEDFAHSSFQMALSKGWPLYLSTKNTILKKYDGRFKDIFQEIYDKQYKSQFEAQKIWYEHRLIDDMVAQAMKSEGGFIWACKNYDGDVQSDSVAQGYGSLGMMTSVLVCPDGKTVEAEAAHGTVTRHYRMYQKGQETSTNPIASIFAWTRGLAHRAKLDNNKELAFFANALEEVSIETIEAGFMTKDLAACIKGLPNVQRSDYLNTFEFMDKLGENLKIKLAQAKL

One series has as its target T1, IDH1-R132H (Homo sapiens, UniProt O75874, R132H).
T1 construct: expressed in transfected cells; host or cells: U87MG cells (U87MGR132H)
The series can be described thus: Fluorescent determination of IDH1-R132H cell activity (2-HG in U87MGR132H cells). As to conditions: 2-HG inhibition in U87MGR132H cells transfected with IDH1-R132H mutant plasmid. Format: cell-based.
For `C[C@@H](Nc1nc(C2=C(F)C(O)C(F)(F)CC2)nc(N2CC(F)(F)C2)n1)C(F)(F)F` (stereo partly shown) [Compound 243], the pIC50 is < 5.00.

As for `C[C@@H](Nc1nc(N[C@H](C)C(F)(F)F)nc(C2=C(F)C(O)C3(CC2)CC3)n1)C(F)(F)F` (mixture of isomers) [Compound 219], the pIC50 was 5.49.

As for `CC(C)(C)ONc1nc(Nc2ccnc(C(F)(F)F)c2)nc(C2=C(F)C(O)CCC2)n1` (stereo not shown) [Compound 71], the pIC50 is 5.52.

The target in a further series is T2, IDH2-R140Q (Homo sapiens, UniProt P48735, R140Q).
T2 construct: expressed in transfected cells
T2 sequence (P48735 40-452 R140Q): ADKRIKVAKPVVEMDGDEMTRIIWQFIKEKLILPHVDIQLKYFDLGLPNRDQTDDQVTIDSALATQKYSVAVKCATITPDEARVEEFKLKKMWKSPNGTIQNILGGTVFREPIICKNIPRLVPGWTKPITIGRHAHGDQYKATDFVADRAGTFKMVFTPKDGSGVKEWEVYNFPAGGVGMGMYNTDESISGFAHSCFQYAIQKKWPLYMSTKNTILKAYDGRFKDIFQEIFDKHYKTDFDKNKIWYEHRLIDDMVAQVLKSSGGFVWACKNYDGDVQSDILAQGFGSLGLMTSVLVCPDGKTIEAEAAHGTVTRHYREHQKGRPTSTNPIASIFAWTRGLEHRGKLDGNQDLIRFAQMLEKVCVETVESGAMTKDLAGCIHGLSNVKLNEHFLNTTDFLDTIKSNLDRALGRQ
Kind of series: Fluorescent determination of IDH2-R140Q cell activity (2-HG in U87MGR140Q cells). Format: cell-based. As to conditions: 72 hours incubation, read-out: IC50 (2-HG inhibition).
On to `C[C@@H](Nc1nc(C2=C(F)C(O)C(F)(F)CC2)nc(N2CC(F)(F)C2)n1)C(F)(F)F` (stereo partly shown) [Compound 243], for which the pIC50 is 5.93.

In the case of `C[C@@H](Nc1nc(N[C@H](C)C(F)(F)F)nc(C2=C(F)C(O)C3(CC2)CC3)n1)C(F)(F)F` (mixture of isomers) [Compound 219], the pIC50 was 6.15.

For `OC1CCCCC(c2nc(NC3CC(F)(F)C3)nc(NC3CC(F)(F)C3)n2)=C1F` (stereo not shown) [Compound 20], the pIC50 was 6.63.

With `CC(C)(C)ONc1nc(Nc2ccnc(C(F)(F)F)c2)nc(C2=C(F)C(O)CCC2)n1` (stereo not shown) [Compound 71], the pIC50 is 7.30.

With `C[C@@H](Nc1nc(Nc2ccc3cccnc3c2)nc(C2=C(F)C(O)CCC2)n1)C(F)(F)F` (stereo partly shown) [Compound 68], the pIC50 was 6.36.

For the compound `CC(C)Nc1nc(N[C@H](C)C(F)(F)F)nc(C2=CC(O)CC2)n1` (mixture of isomers) [Compound 125], the pIC50 was 5.78.

As for `CC(C)Nc1nc(N[C@H](C)C(F)(F)F)nc(C2=C(F)C(O)CC(C)(C)C2)n1` (mixture of isomers) [Compound 9], the pIC50 is 6.24.

As to `C[C@@H](Nc1nc(N[C@H]2CCOC2)nc(C2=C(F)C(O)CCC2)n1)C(F)(F)F` (mixture of isomers) [Compound 3], the pIC50 was 6.06.

Test system in another series: not listed separately
The series can be described thus: Determination of solubility in sodium phosphate buffers. Format: physicochemical. As to conditions: aqueous buffer, thermodynamic from solid; pH 2.1 sodium phosphate buffer; read-out: Solubility pH 2.1. The procedure: • Sample standard solution: About 3-5 mg test compound was accurately weighed and added into a 5 mL sample tube, 5 mL DMSO was added. Shaking and sonicating for 1 hour. • pH 2.1 sample solution: About 1 mg test compound was accurately weighed and added into a 1 mL sample tube, 1 mL pH 2.1 sodium phosphate buffer was added. Shaking. Adding test compound to the solution, if the solution is visually clear, till there is obvious insoluble in the solution. Sonicating for 1 hour. • pH 7.4 sample solution: About 1 mg test compound was accurately weighed and added into a 1 mL sample tube, 1 mL pH 7.4 sodium phosphate buffer was added. Shaking. Adding test compound to the solution, if the solution is visually clear, till there is obvious insoluble in the solution. Sonicating for 1 hour. 2. Determination • 1 mL sample standard solution was accurately pipetted into a HPLC tube. The peak area was determined by HPLC. • 0.5 mL pH 2.1 sample solution was filtered by syringe filter and was accurately pipetted into a HPLC tube, and 0.5 mL pH 2.1 sodium phosphate buffer was accurately added. Shaking. The peak area was determined by HPLC. • 0.5 mL pH 7.4 sample solution was filtered by syringe filter and was accurately pipetted into a HPLC tube, and 0.5 mL pH 7.4 sodium phosphate buffer was accurately added. Shaking. The peak area was determined by HPLC. • HPLC condition: • Instrument: Agilent 1200 • Column: Agilent SB-C18 5 u 4.6*150 mm • Mobile phase: • Phase A: Water (containing 0.1% formic acid) • Phase B: MeOH (containing 0.1% formic acid)
As for `C[C@@H](Nc1nc(C2=C(F)C(O)C(F)(F)CC2)nc(N2CC(F)(F)C2)n1)C(F)(F)F` (stereo partly shown) [Compound 243], the solubility at 1 h was found to be 55 µg/mL (≈ 127 µM).

Take `Nc1nc(N)nc(C2=C(F)C(O)C(F)(F)CC2)n1` (stereo not shown) [Compound 284, 3-(4,6-Diamino-1,3,5-triazin-2-yl)-2,6,6-trifluorocyclohex-2-en-1-ol]: the solubility at 1 h turned out to be 789 µg/mL (≈ 3020 µM).

With `C[C@@H](Nc1nc(N[C@H](C)C(F)(F)F)nc(C2=C(F)C(O)C3(CC2)CC3)n1)C(F)(F)F` (mixture of isomers) [Compound 219], the solubility at 1 h amounted to 190 µg/mL (≈ 429 µM).

In the case of `OC1CCCCC(c2nc(NC3CC(F)(F)C3)nc(NC3CC(F)(F)C3)n2)=C1F` (stereo not shown) [Compound 20], the solubility at 1 h was 570 µg/mL (≈ 1360 µM).

As to `CC(C)(C)ONc1nc(Nc2ccnc(C(F)(F)F)c2)nc(C2=C(F)C(O)CCC2)n1` (stereo not shown) [Compound 71], the solubility at 1 h was 64 µg/mL (≈ 145 µM).

As to `C[C@@H](Nc1nc(Nc2ccc3cccnc3c2)nc(C2=C(F)C(O)CCC2)n1)C(F)(F)F` (stereo partly shown) [Compound 68], the solubility at 1 h amounted to 141 µg/mL (≈ 314 µM).

Regarding `C[C@@H](Nc1nc(NCc2ccccn2)nc(C2=C(F)C(O)C(F)(F)CC2)n1)C(F)(F)F` (mixture of isomers) [Compound 271], the solubility at 1 h was determined as 974 µg/mL.

Take `CC(C)Nc1nc(N[C@H](C)C(F)(F)F)nc(C2=CC(O)CC2)n1` (mixture of isomers) [Compound 125]: the solubility at 1 h is 448 µg/mL (≈ 1350 µM).

Turning to `CC(C)Nc1nc(N[C@H](C)C(F)(F)F)nc(C2=C(F)C(O)CC(C)(C)C2)n1` (mixture of isomers) [Compound 9], the solubility at 1 h was > 1000 µg/mL.

For the compound `C[C@@H](Nc1nc(N[C@H]2CCOC2)nc(C2=C(F)C(O)CCC2)n1)C(F)(F)F` (mixture of isomers) [Compound 3], the solubility at 1 h was > 1000 µg/mL.

The same series, now with this note: aqueous buffer, thermodynamic from solid; pH 7.4 sodium phosphate buffer; read-out: Solubility pH 7.4.
Take `C[C@@H](Nc1nc(C2=C(F)C(O)C(F)(F)CC2)nc(N2CC(F)(F)C2)n1)C(F)(F)F` (stereo partly shown) [Compound 243]: the solubility at 1 h was < 5 µg/mL.

Turning to `Nc1nc(N)nc(C2=C(F)C(O)C(F)(F)CC2)n1` (stereo not shown) [Compound 284, 3-(4,6-Diamino-1,3,5-triazin-2-yl)-2,6,6-trifluorocyclohex-2-en-1-ol], the solubility at 1 h was found to be 818 µg/mL (≈ 3130 µM).

In the case of `C[C@@H](Nc1nc(N[C@H](C)C(F)(F)F)nc(C2=C(F)C(O)C3(CC2)CC3)n1)C(F)(F)F` (mixture of isomers) [Compound 219], the solubility at 1 h came out at 60 µg/mL (≈ 135 µM).

Regarding `OC1CCCCC(c2nc(NC3CC(F)(F)C3)nc(NC3CC(F)(F)C3)n2)=C1F` (stereo not shown) [Compound 20], the solubility at 1 h was 62 µg/mL (≈ 148 µM).

`CC(C)(C)ONc1nc(Nc2ccnc(C(F)(F)F)c2)nc(C2=C(F)C(O)CCC2)n1` (stereo not shown) [Compound 71]: the solubility at 1 h worked out at 55 µg/mL (≈ 124 µM).

Take `C[C@@H](Nc1nc(Nc2ccc3cccnc3c2)nc(C2=C(F)C(O)CCC2)n1)C(F)(F)F` (stereo partly shown) [Compound 68]: the solubility at 1 h is < 5 µg/mL.

With `C[C@@H](Nc1nc(NCc2ccccn2)nc(C2=C(F)C(O)C(F)(F)CC2)n1)C(F)(F)F` (mixture of isomers) [Compound 271], the solubility at 1 h was found to be 124 µg/mL.

As to `CC(C)Nc1nc(N[C@H](C)C(F)(F)F)nc(C2=CC(O)CC2)n1` (mixture of isomers) [Compound 125], the solubility at 1 h is 19 µg/mL (≈ 57.3 µM).

Take `CC(C)Nc1nc(N[C@H](C)C(F)(F)F)nc(C2=C(F)C(O)CC(C)(C)C2)n1` (mixture of isomers) [Compound 9]: the solubility at 1 h was 85 µg/mL (≈ 217 µM).

Turning to `C[C@@H](Nc1nc(N[C@H]2CCOC2)nc(C2=C(F)C(O)CCC2)n1)C(F)(F)F` (mixture of isomers) [Compound 3], the solubility at 1 h is 716 µg/mL (≈ 1830 µM).

These data come from patent publication US12234211B2, “Cycloolefin substituted heteroaromatic compounds and their use” (HUTCHISON MEDIPHARMA LIMITED, priority 2017, dated 2025).
